Data on 29 compounds can be found in patent US9120804B2, “8-substituted 2-amino-[1,2,4] triazolo [1, 5-A] pyrazines as Syk tryrosine kinase inhibitors and GCN2 serin kinase inhibitors” (Merck Patent GmbH, priority 2012, dated 2015).

pIC50: −log10 of the molar value.

The experiment addresses T1, SYK (Homo sapiens, UniProt P43405).
T1 construct: 2.5 nM SYK, 400 nM Biotin-Aha-Aha-KEDPDYEWPSAKK
Briefly: SYK flash plate assay (enzyme assay). The format is biochemical. As to the method:
The kinase assay is performed either as 384-well Flashplate assay (for e.g. Topcount measurement) or as 384-well Image-Flashplate assay (for LEADseeker measurement).
2.5 nM SYK, 400 nM Biotin-Aha-Aha-KEDPDYEWPSAKK
and 10 μM ATP (spiked with 0.3 μCi 33P-ATP/well) are incubated in a total volume of 50 μl (60 mM Hepes, 10 mM MgCl2, 1.2 mM Dithiothreitol, 0.02% Brij35, 0.1% BSA, pH 7.5) with or without test compound for 1 hours at 30° C. The reaction is stopped with 25 μl 200 mM EDTA. After 30 Min at 30° C. the liquid is removed and each well washed thrice with 100 μl 0.9% sodium chloride solution. Non-specific reaction is determined in presence of […] Staurosporine. Radioactivity is measured with Topcount (when using Flashplates) or with LEADseeker (when using Image-Flashplates) respectively. Results (e.g. IC50-values) are calculated with program tools provided by the IT-department (e.g. Symyx Assay Explorer, Genedata Screener). In Vivo Assays CIA
On to `Cn1cc(-c2nccn3nc(Nc4ccc5c(c4)NS(=O)(=O)C5)nc23)cn1` [E23, (2,2-dioxo-2,3-dihydro-1H-2I6-benzo[c]isothiazol-6-yl)-[8-(1-methyl-1H-pyrazol-4-yl)-[1,2,4]triazolo[1,5-a]pyrazin-2-yl]-amine], for which the pIC50 – broadly, the negative decadic logarithm of the IC50, by convention in mol/L – is 6.52 to 7.00.

Turning to `CC1(C)C(=O)Nc2cc(Nc3nc4c(N5C[C@H](O)C[C@H]5c5ccccc5)nccn4n3)ccc21` [E24, 6-[8-((2S,4R)-4-hydroxy-2-phenyl-pyrrolidin-1-yl)-[1,2,4]triazolo[1,5-a]pyrazin-2-ylamino]-3,3-dimethyl-1,3-dihydro-indol-2-one], the pIC50 is 4.30 to 5.52.

In turn, `Cn1cc(-c2nccn3nc(Nc4ccc5c(c4)NC(=O)NC5(C)C)nc23)cn1` [E26, 4,4-dimethyl-7-[8-(1-methyl-1H-pyrazol-4-yl)-[1,2,4]triazolo[1,5-a]pyrazin-2-ylamino]-3,4-dihydro-1H-quinazolin-2-one] had a pIC50 greater than 7.00.

In the case of `CC1(C)C(=O)Nc2cc(Nc3nc4c(N5CCC6(CC5)CNC(=O)O6)nccn4n3)ccc21` [E27, 8-[2-(3,3-dimethyl-2-oxo-2,3-dihydro-1H-indol-6-ylamino)-[1,2,4]triazolo[1,5-a]pyrazin-8-yl]-1-oxa-3,8-diaza-spiro[4.5]decan-2-one], the pIC50 is greater than 7.00.

In turn, `CC1(C)C(=O)Nc2cc(Nc3nc4c(N5CCC6(CC5)NC(=O)NC6=O)nccn4n3)ccc21` [E28, 8-[2-(3,3-dimethyl-2-oxo-2,3-dihydro-1H-indol-6-ylamino)-[1,2,4]triazolo[1,5-a]pyrazin-8-yl]-1,3,8-triaza-spiro[4.5]decane-2,4-dione] gave a pIC50 greater than 7.00.

On to `CC1(C)C(=O)Nc2cc(Nc3nc4c(N5C[C@@H](O)C[C@H]5c5ccccc5)nccn4n3)ccc21` [E29, 6-[8-((2S,4S)-4-hydroxy-2-phenyl-pyrrolidin-1-yl)-[1,2,4]triazolo[1,5-a]pyrazin-2-ylamino]-3,3-dimethyl-1,3-dihydro-indol-2-one], for which the pIC50 is 4.30 to 5.52.

For `CC1(C)C(=O)Nc2cc(Nc3nc4c(N5CCC(CO)C5)nccn4n3)ccc21` (centres unmarked) [E30, 6-[8-(3-hydroxymethyl-pyrrolidin-1-yl)-[1,2,4]triazolo[1,5-a]pyrazin-2-ylamino]-3,3-dimethyl-1,3-dihydro-indol-2-one], the pIC50 was 4.30 to 5.52.

As to `COc1cccc(Nc2nc3c(-c4ccccc4C#N)nccn3n2)c1` [E31, 2-[2-(3-methoxy-phenylamino)-[1,2,4]triazolo[1,5-a]pyrazin-8-yl]-benzonitrile], the pIC50 is greater than 7.00.

For `CC1(C)C(=O)Nc2cc(Nc3nc4c(N5Cc6cn[nH]c6C5)nccn4n3)ccc21` [E32, 6-[8-(4,6-dihydro-1H-pyrrolo[3,4-c]pyrazol-5-yl)-[1,2,4]triazolo[1,5-a]pyrazin-2-ylamino]-3,3-dimethyl-1,3-dihydro-indol-2-one], the pIC50 was greater than 7.00.

`CC1(C)C(=O)Nc2cc(Nc3nc4c(N5CC6C(=O)NC(=O)C6C5)nccn4n3)ccc21` (centres unmarked) [E33, 5-[2-(3,3-dimethyl-2-oxo-2,3-dihydro-1H-indol-6-ylamino)-[1,2,4]triazolo[1,5-a]pyrazin-8-yl]-tetrahydro-pyrrolo[3,4-c]pyrrole-1,3-dione] gave a pIC50 of 6.52 to 7.00.

As to `CC1(C)C(=O)Nc2cc(Nc3nc4c(N5CCC(COC=O)C5)nccn4n3)ccc21` (centres unmarked) [E34, formic acid 1-[2-(3,3-dimethyl-2-oxo-2,3-dihydro-1H-indol-6-ylamino)-[1,2,4]triazolo[1,5-a]pyrazin-8-yl]pyrrolidin-3-ylmethyl ester], the pIC50 was 6.52 to 7.00.

In turn, `CC1(C)C(=O)Nc2cc(Nc3nc4c(N5CCC6(CCC(=O)N6)CC5)nccn4n3)ccc21` [E35, 8-[2-(3,3-dimethyl-2-oxo-2,3-dihydro-1H-indol-6-ylamino)-[1,2,4]triazolo[1,5-a]pyrazin-8-yl]-1,8-diaza-spiro[4.5]decan-2-one] showed a pIC50 greater than 7.00.

On to `Cn1cc(-c2nccn3nc(Nc4ccc(CS(=O)(=O)O)c(N)c4)nc23)cn1` [E36, {2-amino-4-[8-(1-methyl-1H-pyrazol-4-yl)-[1,2,4]triazolo[1,5-a]pyrazin-2-ylamino]-phenyl}-methanesulfonic acid], for which the pIC50 was 6.52 to 7.00.

For `Cc1nc(C2CCN(c3nccn4nc(Nc5ccc6c(c5)NC(=O)C6(C)C)nc34)CC2)[nH]c1C` [E37, 6-{8-[4-(4,5-dimethyl-1H-imidazol-2-yl)-piperidin-1-yl]-[1,2,4]triazolo[1,5-a]pyrazin-2-ylamino}-3,3-dimethyl-1,3-dihydro-indol-2-one], the pIC50 is 6.52 to 7.00.

Compound `CNS(=O)(=O)C1CCN(c2nccn3nc(Nc4ccc5c(c4)NC(=O)C5(C)C)nc23)CC1` [E38, 1-[2-(3,3-dimethyl-2-oxo-2,3-dihydro-1H-indol-6-ylamino)-[1,2,4]triazolo[1,5-a]pyrazin-8-yl]-piperidine-4-sulfonic acid methylamide] showed a pIC50 of 6.52 to 7.00.

For `CC1(C)C(=O)Nc2cc(Nc3nc4c(N5CCC(S(N)(=O)=O)CC5)nccn4n3)ccc21` [E39, 1-[2-(3,3-dimethyl-2-oxo-2,3-dihydro-1H-indol-6-ylamino)-[1,2,4]triazolo[1,5-a]pyrazin-8-yl]-piperidine-4-sulfonic acid amide], the pIC50 was greater than 7.00.

In turn, `CC1(C)C(=O)Nc2cc(Nc3nc4c(N5CCC(C(N)=O)CC5)nccn4n3)ccc21` [E40, 1-[2-(3,3-dimethyl-2-oxo-2,3-dihydro-1H-indol-6-ylamino)-[1,2,4]triazolo[1,5-a]pyrazin-8-yl]-piperidine-4-carboxylic acid amide] showed a pIC50 greater than 7.00.

In the case of `CC1(C)C(=O)Nc2cc(Nc3nc4c(N5CCCC5)nccn4n3)ccc21` [E41, 3,3-dimethyl-6-(8-pyrrolidin-1-yl-[1,2,4]triazolo[1,5-a]pyrazin-2-ylamino)-1,3-dihydro-indol-2-one], the pIC50 is greater than 7.00.

Turning to `CC1CCCN1c1nccn2nc(Nc3ccc4c(c3)NC(=O)C4(C)C)nc12` (centres unmarked) [E42, 3,3-dimethyl-6-[8-(2-methyl-pyrrolidin-1-yl)-[1,2,4]triazolo[1,5-a]pyrazin-2-ylamino]-1,3-dihydro-indol-2-one], the pIC50 was greater than 7.00.

`CC1CCC(C)N1c1nccn2nc(Nc3ccc4c(c3)NC(=O)C4(C)C)nc12` (centres unmarked) [E43, 6-[8-(2,5-dimethyl-pyrrolidin-1-yl)-[1,2,4]triazolo[1,5-a]pyrazin-2-ylamino]-3,3-dimethyl-1,3-dihydro-indol-2-one]: the pIC50 was greater than 7.00.

Compound `CCC1(O)CCN(c2nccn3nc(Nc4ccc5c(c4)NC(=O)C5(C)C)nc23)CC1` [E44, 6-[8-(4-ethyl-4-hydroxy-piperidin-1-yl)-[1,2,4]triazolo[1,5-a]pyrazin-2-ylamino]-3,3-dimethyl-1,3-dihydro-indol-2-one] gave a pIC50 greater than 7.00.

As for `CC1(C)NC(=O)Nc2cc(Nc3nc4c(N5CCC6(CC5)CNC(=O)O6)nccn4n3)ccc21` [E45, 4,4-dimethyl-7-[8-(2-oxo-1-oxa-3,8-diaza-spiro[4.5]dec-8-yl)-[1,2,4]triazolo[1,5-a]pyrazin-2-ylamino]-3,4-dihydro-1H-quinazolin-2-one], the pIC50 is greater than 7.00.

`CC1(C)CC(=O)Nc2cc(Nc3nc4c(N5CCC6(CC5)CNC(=O)O6)nccn4n3)ccc21` [E46, 4,4-dimethyl-7-[8-(2-oxo-1-oxa-3,8-diaza-spiro[4.5]dec-8-yl)-[1,2,4]triazolo[1,5-a]pyrazin-2-ylamino]-3,4-dihydro-1H-quinolin-2-one] had a pIC50 greater than 7.00.

In the case of `CC1(C)OC(=O)Nc2cc(Nc3nc4c(N5CCC6(CC5)CNC(=O)O6)nccn4n3)ccc21` [E47, 4,4-dimethyl-7-[8-(2-oxo-1-oxa-3,8-diaza-spiro[4.5]dec-8-yl)-[1,2,4]triazolo[1,5-a]pyrazin-2-ylamino]-1,4-dihydro-benzo[d][1,3]oxazin-2-one], the pIC50 is greater than 7.00.

Compound `CC1(C)CC(=O)Nc2cc(Nc3nc4c(N5CC[C@@]6(CC(=O)NC6=O)C5)nccn4n3)ccc21` [E48, (R)-7-[2-(4,4-dimethyl-2-oxo-1,2,3,4-tetrahydro-quinolin-7-ylamino)-[1,2,4]triazolo[1,5-a]pyrazin-8-yl]-2,7-diaza-spiro[4.4]nonane-1,3-dione] gave a pIC50 greater than 7.00.

The compound `CC1(C)CC(=O)Nc2cc(Nc3nc4c(N5CC[C@]6(CC(=O)NC6=O)C5)nccn4n3)ccc21` [E49, (S)-7-[2-(4,4-dimethyl-2-oxo-1,2,3,4-tetrahydro-quinolin-7-ylamino)-[1,2,4]triazolo[1,5-a]pyrazin-8-yl]-2,7-diaza-spiro[4.4]nonane-1,3-dione] gave a pIC50 greater than 7.00.

For `CC1(C)C(=O)Nc2cc(Nc3nc4c(N5CC[C@]6(CNC(=O)C6)C5)nccn4n3)ccc21` [E52, 3,3-dimethyl-6-[8-((S)-8-oxo-2,7-diaza-spiro[4.4]non-2-yl)-[1,2,4]triazolo[1,5-a]pyrazin-2-ylamino]-1,3-dihydro-indol-2-one], the pIC50 is 6.52 to 7.00.

Regarding `CC1(C)CCNc2cc(Nc3nc4c(N5CCC6(CC5)CNC(=O)O6)nccn4n3)ccc21` [E53, 8-[2-(4,4-dimethyl-1,2,3,4-tetrahydro-quinolin-7-ylamino)-[1,2,4]triazolo[1,5-a]pyrazin-8-yl]-1-oxa-3,8-diaza-spiro[4.5]decan-2-one], the pIC50 was greater than 7.00.

Compound `CC1(C)CCCc2cc(Nc3nc4c(N5CCC6(CC5)CNC(=O)O6)nccn4n3)ccc21` [E54, 8-[2-(5,5-dimethyl-5,6,7,8-tetrahydro-naphthalen-2-ylamino)-[1,2,4]triazolo[1,5-a]pyrazin-8-yl]-1-oxa-3,8-diaza-spiro[4.5]decan-2-one] gave a pIC50 greater than 7.00.
